According to patent US7341836B2, “Modified cyclic nucleotide gated ion channels” (The Regents of the University of Colorado, priority 2001, dated 2008):

Assays:
PDE VIII = molecular target: T1, PDE VIII (Mus musculus, UniProt O88502); settings: cited from earlier work
T1 construct: host or cells: heterologously expressed
T1 sequence (O88502 1-823): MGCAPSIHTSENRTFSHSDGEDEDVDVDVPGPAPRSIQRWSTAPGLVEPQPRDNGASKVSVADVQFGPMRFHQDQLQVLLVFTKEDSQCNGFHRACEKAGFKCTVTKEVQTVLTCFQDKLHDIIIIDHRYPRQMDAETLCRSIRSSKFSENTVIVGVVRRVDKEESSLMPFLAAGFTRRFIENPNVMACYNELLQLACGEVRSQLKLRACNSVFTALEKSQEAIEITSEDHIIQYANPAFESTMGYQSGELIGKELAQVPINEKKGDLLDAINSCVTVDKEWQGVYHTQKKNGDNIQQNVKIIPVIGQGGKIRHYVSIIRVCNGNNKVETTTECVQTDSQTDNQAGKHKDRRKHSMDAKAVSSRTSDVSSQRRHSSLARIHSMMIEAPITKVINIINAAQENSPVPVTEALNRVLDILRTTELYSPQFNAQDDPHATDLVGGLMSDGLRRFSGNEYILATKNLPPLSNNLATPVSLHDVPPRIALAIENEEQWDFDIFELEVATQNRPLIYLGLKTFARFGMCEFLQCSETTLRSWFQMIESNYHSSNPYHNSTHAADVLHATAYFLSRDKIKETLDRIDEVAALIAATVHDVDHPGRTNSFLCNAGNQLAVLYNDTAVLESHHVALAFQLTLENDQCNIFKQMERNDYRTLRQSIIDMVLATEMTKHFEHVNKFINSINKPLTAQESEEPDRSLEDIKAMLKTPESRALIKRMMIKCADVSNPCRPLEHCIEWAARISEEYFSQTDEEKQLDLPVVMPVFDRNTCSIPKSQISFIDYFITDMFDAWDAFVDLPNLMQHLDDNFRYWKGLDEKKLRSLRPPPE

[1] = test system: HEK-293 cells expressing C460W/E583M channels; assay: PGE1-induced cAMP responses in cell populations (Ca2+ influx through C460W/E583M channels); format: cell-based, human; settings: for effect of PDE inhibitor added after PGE1: 100 μM IBMX or 10 μM RO-20-1724
Text: In this Example, experiments conducted to detect cAMP levels in cells are described. Changes in cyclic AMP concentrations in response to PGE1 stimulation were monitored in HEK-293 cells by measuring Ca^2+ influx through C460W/E583M CNG channels (See, Rich et al. [2001], supra). HEK-293 cells express a variety of extracellular receptors including prostanoid receptors (Thomas and Hoffman, Mol. Pharmacol., 49:907-914 [1996]), and the cAMP-specific PDE type IV (Rich et al. [2001], supra; and Hoffmann et al., EMBO J., 18:893-903 [1999]). Based on PCR analysis, these cells also appear to express AC types II, […], VI, and VII, (Hellevuo et al., Biochem. Biophys. Res. Commun., 192:311-318 [1993]). C460W/E583M channels were expressed heterologously using an adenovirus construct (See, Rich et al. [2001], supra). The Ca^2+ permeability of the channel was used to detect changes in local cAMP concentration; the fluorescent indicator fura-2 was used to monitor Ca^2+ entry. With this approach, incremental changes in cAMP concentration are readily detected as changes in relative Ca^2+ influx rates through C460W/E583M channels (See, Rich et al., [2001], supra).
Transient responses were observed over a large range of PGE1 concentrations, from 0.01 to 10 μM (FIG. 17, Panel A). […] The decline was unlikely to result primarily from a reduction in AC activity (e.g., receptor desensitization), because of the sustained accumulation of total cellular cAMP in the presence of IBMX (See, FIG. 16, Panel B). To verify this, 100 μM IBMX was added at various times after PGE1 application.
To test whether PGE1 did indeed increase the total PDE activity, 100 nM PGE1 were added at various times after the initial application of 100 nM PGE1 (a subsaturating concentration). There was a negligible response to the subsequent addition of PGE1, even after 50 min (FIG. 17, Panel D). Taken together, the results of the experiments shown in FIG. 17, Panels C and D argue that the cAMP transient is due to an initial increase in AC activity, followed by a more profound increase in PDE activity. […] As indicated herein, these processes are crucial for the generation of spatially and temporally distinct cAMP signals.

PDE III = settings: cited from earlier work

Row | Compound | IC50 (PDE VIII) [µM] | slopes of the IBMX-induced responses ([1]; 100 μM IBMX added 1-50 min after 100 nM PGE1) [s⁻¹] | effect of PDE inhibitor added after PGE1 [1] | IC50 (PDE III) [µM]
1 | CCCCCC[C@@H]([C@@H](C)O)n1cnc2c(N)ncnc21 (racemic) [EHNA] | > 100 | – | – | –
2 | CC(C)Cn1c(=O)n(C)c(=O)c2[nH]cnc21 [IBMX, 3-isobutyl-1-methylxanthine] | > 200 | 0.0044 ± 0.0008 | triggered a rapid Ca^2+ influx | 2
3 | CCCCOc1cc(CC2CNC(=O)N2)ccc1OC (stereo not drawn) [RO-20-1724, 4-(3-butoxy-4-methoxybenzyl)-2-imidazolidinone] | > 200 | – | caused sharp increases in cAMP | 52
4 | COc1ccc(C2CNC(=O)C2)cc1OC1CCCC1 (stereo not drawn) [Rolipram] | > 200 | – | – | –
